In ChEMBL document CHEMBL1201862, “PubChem BioAssay data set” (2004):
Active and inactive are the calls of the source.

Key:
[1] = biological target: DNA dC->dU-editing enzyme APOBEC-3G (Homo sapiens, UniProt Q9HC16); assay: Dose Response confirmation of small molecule APOBEC3G DNA Deaminase Inhibitors via a fluorescence-based single-stranded DNA deaminase assay. [Related pubchem assays (depositor defined):AID493012, AID493028]; type: functional
[2] = biological target: DNA dC->dU-editing enzyme APOBEC-3A (Homo sapiens, UniProt P31941); assay: APOBEC3A DNA deaminase inhibitors, dose response, biochemical (AID 504722); type: functional
[3] = biological target: G-protein coupled receptor 35 (Homo sapiens, UniProt Q9HC97); assay: GPR35 antagonists blocking zaprinast-driven arrestin recruitment, primary screen, imaging, U2OS, beta-arrestin-GFP, zaprinast agonist (AID 2058); type: functional;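 also: antagonist potency meaning inhibition of agonist-induced arrestin redistribution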
[4] = biological target: T1, Heat shock factor protein 1 (Mus musculus, UniProt P38532); assay: inhibition of MG132-induced HSE-luciferase signal, confirmation, cell-based, NIH3T3, luminescence, dose retest (AID 2382); type: functional;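 also: NIH3T3 fibroblasts with HSF1-driven luciferase reporter stressed by proteasome inhibitor MG132; luminescence from HSF1-driven luciferase expression after 8 hours of MG132 stress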
T1 sequence (P38532 whole entry): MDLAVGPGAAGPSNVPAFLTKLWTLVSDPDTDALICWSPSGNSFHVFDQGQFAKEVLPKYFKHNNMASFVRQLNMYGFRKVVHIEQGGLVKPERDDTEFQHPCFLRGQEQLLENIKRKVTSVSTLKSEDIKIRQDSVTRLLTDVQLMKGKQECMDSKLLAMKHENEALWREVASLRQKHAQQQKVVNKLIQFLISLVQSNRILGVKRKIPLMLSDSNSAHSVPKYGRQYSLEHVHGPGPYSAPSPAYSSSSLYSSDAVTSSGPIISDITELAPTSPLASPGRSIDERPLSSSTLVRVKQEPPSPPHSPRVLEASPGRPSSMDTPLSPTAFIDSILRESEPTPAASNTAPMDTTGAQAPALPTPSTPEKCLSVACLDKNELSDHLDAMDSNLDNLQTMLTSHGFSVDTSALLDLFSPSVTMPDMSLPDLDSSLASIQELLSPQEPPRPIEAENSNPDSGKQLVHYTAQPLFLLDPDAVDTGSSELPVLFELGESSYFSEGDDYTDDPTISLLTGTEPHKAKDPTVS

[5] = Luminescence Cell-Based Dose Retest to Confirm Inhibitors of Cancer Stem Cells. [Related pubchem assays (depositor defined):AID2717, AID2721]; type: functional; conditions: Homo sapiens
[6] = system: Streptococcus sp. 'group A'; assay: growth inhibition of control SK(-) GAS strain, dose response, counter-screen for streptokinase expression inhibitor project, luminescence, kanamycin, BacTiterGlo, confirmation (AID 1900); type: functional, organism-based
[7] = system: Streptococcus; assay: Group A Streptococcus viability loss, dose response, counter-screen for streptokinase expression inhibitor project, luminescence, BacTiterGlo (AID 1915); type: functional, organism-based;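 also: potency for reduction of bacterial viability or growth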
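For AC50 in this document: cells exposed to compound for roughly 70 hours or longer before luminescence read.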

Sequence of DNA dC->dU-editing enzyme APOBEC-3G (Q9HC16 whole entry): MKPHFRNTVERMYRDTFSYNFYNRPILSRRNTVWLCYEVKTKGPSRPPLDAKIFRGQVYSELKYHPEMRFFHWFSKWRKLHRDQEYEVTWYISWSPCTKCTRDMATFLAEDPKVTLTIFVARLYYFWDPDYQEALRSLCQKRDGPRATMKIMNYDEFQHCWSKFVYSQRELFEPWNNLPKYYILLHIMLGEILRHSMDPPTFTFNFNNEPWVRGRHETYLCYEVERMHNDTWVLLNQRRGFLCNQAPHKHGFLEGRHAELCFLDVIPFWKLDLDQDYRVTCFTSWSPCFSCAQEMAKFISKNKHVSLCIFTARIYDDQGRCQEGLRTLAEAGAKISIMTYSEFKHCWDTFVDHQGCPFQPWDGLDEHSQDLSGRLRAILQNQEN
Sequence of DNA dC->dU-editing enzyme APOBEC-3A (P31941 whole entry): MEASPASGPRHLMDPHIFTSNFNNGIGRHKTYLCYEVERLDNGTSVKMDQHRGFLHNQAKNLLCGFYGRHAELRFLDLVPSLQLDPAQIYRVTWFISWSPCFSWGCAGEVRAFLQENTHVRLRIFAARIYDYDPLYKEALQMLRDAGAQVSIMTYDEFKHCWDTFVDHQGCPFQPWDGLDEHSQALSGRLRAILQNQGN
Sequence of G-protein coupled receptor 35 (Q9HC97 whole entry): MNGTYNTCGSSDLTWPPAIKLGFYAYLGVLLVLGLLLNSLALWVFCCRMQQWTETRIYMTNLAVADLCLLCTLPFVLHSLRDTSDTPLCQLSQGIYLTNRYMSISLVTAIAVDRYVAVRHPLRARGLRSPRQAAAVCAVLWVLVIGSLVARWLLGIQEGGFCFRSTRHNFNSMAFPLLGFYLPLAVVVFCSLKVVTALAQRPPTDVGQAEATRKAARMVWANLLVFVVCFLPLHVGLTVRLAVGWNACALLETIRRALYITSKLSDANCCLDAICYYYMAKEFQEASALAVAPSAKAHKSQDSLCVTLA

SMILES | IC50 [1] | IC50 [2] | IC50 [3] | EC50 [4] | AC50 [5] | EC50 [6] | EC50 [7]
C=CCn1c(-c2cccc(Cl)c2)n[nH]c1=S | 6.21 µM (active) | > 100 µM (inactive) |  |  |  |  | 
COc1cccc(/C=N/n2c(S)nnc2-c2[nH]nc3c2CCC3)c1OC | 3.45 µM (active) | > 100 µM (inactive) |  |  |  |  | 
CC12CCC(C/C1=N\NC1=NC(=O)/C(=C\c3ccc(Cl)cc3)S1)C2(C)C (centres undefined) |  |  | 13.9 µM (inactive) | 1.2 µM (active) | 2.16 µM (active) | 1.18 µM (active) | 2.34 µM (active)
